From ChEMBL document CHEMBL5506059, “Cyanomethylquinolones as a New Class of Potential Multitargeting Broad-Spectrum Antibacterial Agents” (J Med Chem, 2024)
≈ marks a conversion by molar mass, not a printed value. Calls of active or inactive are those of the source. The calls are words filed in the database; no cut-off is given here.

Experiments:
[1] = test system: Cell membrane; test: Induction of cell membrane damage in Pseudomonas aeruginosa assessed as increase in nucleic acid leakage at 0 to 2 ug/ml incubated for 12 hrs by optical density based microplate reader analysis; assay type: cell membranes; conditions: dose 0-2 µg/ml
[2] = test system: Pseudomonas aeruginosa; test: Antibacterial activity against Pseudomonas aeruginosa clinical isolate assessed as inhibition of bacterial growth incubated for 24 hrs; assay type: functional
[3] = test system: Staphylococcus aureus; test: Antibiofilm activity in methicillin resistant Staphylococcus aureus assessed as biofilm eradication measured after 24 hrs by crystal violet staining based analysis; assay type: functional, organism-based; conditions: dose 1-2 µg/ml
[4] = test system: Staphylococcus aureus; test: Antibacterial activity against Staphylococcus aureus CMCC(B)26003 assessed as inhibition of bacterial growth incubated for 24 hrs; assay type: functional
[5] = test system: Cell membrane; test: Induction of cell membrane permeability in Pseudomonas aeruginosa assessed as increase in fluorescence intensity at 1 to 2 ug/ml incubated for 6 hrs by PI staining based fluorescence analysis; assay type: cell membranes; conditions: dose 1-2 µg/ml
[6] = test system: Staphylococcus aureus; test: Antibacterial activity against Staphylococcus aureus CMCC(B)26001 assessed as inhibition of bacterial growth incubated for 24 hrs; assay type: functional
[7] = test system: Enterococcus faecalis; test: Antibacterial activity against Enterococcus faecalis clinical isolate assessed as inhibition of bacterial growth incubated for 24 hrs; assay type: functional
[8] = test system: Cell membrane; test: Induction of cell membrane depolarization in Pseudomonas aeruginosa assessed as increase in fluorescence intensity at 1 ug/ml measured for 30 mins by DiSC35 dye based fluorescence analysis; assay type: cell membranes; conditions: dose 1.0 µg/ml
[9] = test system: Pseudomonas aeruginosa; test: Induction of intracellular ROS generation in Pseudomonas aeruginosa assessed as increase in fluorescence intensity at 2 ug/ml incubated for 6 hrs in presence of N-acetyl-L-cysteine by DCFH-DA dye based fluorescence analysis; assay type: functional, organism-based; conditions: dose 2.0 µg/ml
[10] = test system: Streptococcus pyogenes; test: Antibacterial activity against Streptococcus pyogenes ATCC 19615 assessed as inhibition of bacterial growth incubated for 24 hrs; assay type: functional
[11] = test system: Staphylococcus aureus; test: Antibacterial activity against Staphylococcus aureus ATCC 29213 assessed as inhibition of bacterial growth incubated for 24 hrs; assay type: functional
[12] = test system: Pseudomonas aeruginosa; test: Induction of intracellular ROS generation in Pseudomonas aeruginosa assessed as increase in fluorescence intensity at 2 ug/ml incubated for 6 hrs by DCFH-DA dye based fluorescence analysis; assay type: functional, organism-based; conditions: dose 2.0 µg/ml
[13] = test system: Staphylococcus aureus; test: Antibacterial activity against methicillin resistant Staphylococcus aureus clinical isolate assessed as inhibition of bacterial growth incubated under dark condition and measured upto 5 hrs; assay type: functional, organism-based
[14] = test system: Enterococcus faecium; test: Antibacterial activity against Enterococcus faecium ATCC 19434 assessed as inhibition of bacterial growth incubated for 24 hrs; assay type: functional
[15] = test system: Staphylococcus aureus; test: Antibacterial activity against Staphylococcus aureus ATCC 25923 assessed as inhibition of bacterial growth incubated for 24 hrs; assay type: functional
[16] = test system: Klebsiella pneumoniae; test: Antibacterial activity against Klebsiella pneumoniae clinical isolate assessed as inhibition of bacterial growth incubated for 24 hrs; assay type: functional
[17] = test system: Cell membrane; test: Induction of cell membrane depolarization in methicillin-resistant Staphylococcus aureus assessed as increase in fluorescence intensity at 1 ug/ml measured for 30 mins by DiSC35 dye based fluorescence analysis; assay type: cell membranes; conditions: dose 1.0 µg/ml
[18] = test system: Staphylococcus aureus; test: Antibacterial activity against methicillin resistant Staphylococcus aureus clinical isolate assessed as inhibition of bacterial growth incubated for 24 hrs; assay type: functional
[19] = test system: Cell membrane; test: Induction of cell membrane permeability in methicillin-resistant Staphylococcus aureus assessed as increase in fluorescence intensity at 1 to 2 ug/ml incubated for 6 hrs by PI staining based fluorescence analysis; assay type: cell membranes; conditions: dose 1-2 µg/ml
[20] = Hemolytic activity in human Red blood cells at 256 ug/ml measured after 1.5 hrs by absorbance based assay relative to control; assay type: toxicity, cell-based, Erythrocyte; conditions: red blood cells (erythrocytes), at 256 µg/mL, read-out: Activity
[21] = test system: Pseudomonas aeruginosa; test: Antibacterial activity against Pseudomonas aeruginosa ATCC 27853 assessed as inhibition of bacterial growth incubated for 24 hrs; assay type: functional
[22] = test system: Staphylococcus aureus; test: Antibacterial activity against Staphylococcus aureus ATCC 12600 assessed as inhibition of bacterial growth incubated for 24 hrs; assay type: functional
[23] = test system: Escherichia coli; test: Antibacterial activity against Escherichia coli clinical isolate assessed as inhibition of bacterial growth incubated for 24 hrs; assay type: functional
[24] = test system: Enterococcus faecalis; test: Antibacterial activity against vancomycin-resistant Enterococcus faecalis clinical isolate p1-2007226001 assessed as inhibition of bacterial growth incubated for 24 hrs; assay type: functional
[25] = test system: Pseudomonas aeruginosa; test: Resistance development in Pseudomonas aeruginosa assessed as increase in MIC measured after 20 days; assay type: functional, organism-based; conditions: time 20.0 day
[26] = test system: Staphylococcus epidermidis; test: Antibacterial activity against Staphylococcus epidermidis ATCC 12228 assessed as inhibition of bacterial growth incubated for 24 hrs; assay type: functional
[27] = test system: Pseudomonas aeruginosa; test: Antibiofilm activity in Pseudomonas aeruginosa assessed as biofilm eradication measured after 24 hrs by crystal violet staining based analysis; assay type: functional, organism-based; conditions: dose 1-2 µg/ml
[28] = test system: Staphylococcus aureus; test: Antibacterial activity against methicillin-resistant Staphylococcus aureus ATCC 43300 assessed as inhibition of bacterial growth incubated for 24 hrs; assay type: functional
[29] = test system: Enterococcus faecalis; test: Antibacterial activity against vancomycin-resistant Enterococcus faecalis clinical isolate p1-2007225053 assessed as inhibition of bacterial growth incubated for 24 hrs; assay type: functional
[30] = test system: Streptococcus pneumoniae; test: Antibacterial activity against Streptococcus pneumoniae ATCC 6305 assessed as inhibition of bacterial growth incubated for 24 hrs; assay type: functional
[31] = test system: Staphylococcus aureus; test: Antibacterial activity against Staphylococcus aureus clinical isolate assessed as inhibition of bacterial growth incubated for 24 hrs; assay type: functional
[32] = test system: Cell membrane; test: Induction of cell membrane damage in methicillin-resistant Staphylococcus aureus assessed as increase in nucleic acid leakage at 0 to 2 ug/ml incubated for 12 hrs by optical density based microplate reader analysis; assay type: cell membranes; conditions: dose 0-2 µg/ml
[33] = test system: Escherichia coli; test: Antibacterial activity against Escherichia coli ATCC 25922 assessed as inhibition of bacterial growth incubated for 24 hrs; assay type: functional
[34] = test system: Acinetobacter baumannii; test: Antibacterial activity against Acinetobacter baumannii clinical isolate assessed as inhibition of bacterial growth incubated for 24 hrs; assay type: functional
[35] = test system: Staphylococcus aureus; test: Antibacterial activity against methicillin resistant Staphylococcus aureus assessed as reduction in metabolic activity by measuring reduction in fluorescence intensity at 0.5 to 2 times MIC incubated for 6 hrs by alamar blue assay; assay type: functional, organism-based
[36] = test system: Erythrocyte; test: Hemolytic activity in human Red blood cells assessed as concentration required for 5% hemolysis measured after 1.5 hrs by absorbance based assay; assay type: toxicity, cell-based
[37] = test system: Pseudomonas aeruginosa; test: Antibacterial activity against Pseudomonas aeruginosa assessed as reduction in metabolic activity by measuring reduction in fluorescence intensity at 0.5 to 2 times MIC incubated for 6 hrs by alamar blue assay; assay type: functional, organism-based
[38] = test system: Staphylococcus aureus; test: Resistance development in methicillin resistant Staphylococcus aureus assessed as increase in MIC measured after 20 days; assay type: functional, organism-based; conditions: time 20.0 day
[39] = test system: Staphylococcus aureus; test: Antibacterial activity against Staphylococcus aureus ATCC 6538 assessed as inhibition of bacterial growth incubated for 24 hrs; assay type: functional

O=C(O)Cc1cc2c(cc1F)c(=O)c(C(=O)O)cn2C1CC1
Activity [1]: Active | MIC [2]: 0.5 µg/mL (≈ 1.64 µM) | Activity [3]: Dose-Dependent Effect | MIC [4]: 0.125 µg/mL (≈ 0.409 µM) | Activity [5]: Active | MIC [6]: 0.125 µg/mL (≈ 0.409 µM) | MIC [7]: 4 µg/mL (≈ 13.1 µM) | Activity [8]: Active | Activity [9]: inactive | MIC [10]: 1 µg/mL (≈ 3.28 µM) | MIC [11]: 2 µg/mL (≈ 6.55 µM) | Activity [12]: Active | Activity [13]: Dose-Dependent Effect | MIC [14]: 8 µg/mL (≈ 26.2 µM) | MIC [15]: 32 µg/mL (≈ 105 µM) | MIC [16]: 8 µg/mL (≈ 26.2 µM) | Activity [17]: Active | MIC [18]: 0.5 µg/mL (≈ 1.64 µM) | Activity [19]: Active | hemolysis at 1.5 h, 256 ug/ml [20]: < 1% | MIC [21]: 2 µg/mL (≈ 6.55 µM) | MIC [22]: 1 µg/mL (≈ 3.28 µM) | MIC [23]: 1 µg/mL (≈ 3.28 µM) | MIC [24]: 8 µg/mL (≈ 26.2 µM) | Activity [25]: inactive | MIC [26]: 2 µg/mL (≈ 6.55 µM) | Activity [27]: Dose-Dependent Effect | MIC [28]: 2 µg/mL (≈ 6.55 µM) | MIC [29]: 2 µg/mL (≈ 6.55 µM) | MIC [30]: 4 µg/mL (≈ 13.1 µM) | MIC [31]: 4 µg/mL (≈ 13.1 µM) | Activity [32]: Active | MIC [33]: 0.5 µg/mL (≈ 1.64 µM) | MIC [34]: 0.5 µg/mL (≈ 1.64 µM) | Activity [35]: Active | HC5 [36]: > 10000 µg/mL | Activity [37]: Active | Activity [38]: inactive | MIC [39]: 0.25 µg/mL (≈ 0.819 µM)

CCn1cc(C(=O)O)c(=O)c2cc(F)c(CC#N)cc21
MIC [2]: 0.5 µg/mL (≈ 1.82 µM) | MIC [4]: 4 µg/mL (≈ 14.6 µM) | MIC [6]: 4 µg/mL (≈ 14.6 µM) | MIC [7]: 32 µg/mL (≈ 117 µM) | MIC [10]: 1 µg/mL (≈ 3.65 µM) | MIC [11]: 4 µg/mL (≈ 14.6 µM) | MIC [14]: 256 µg/mL (≈ 933 µM) | MIC [15]: 0.25 µg/mL (≈ 0.912 µM) | MIC [16]: 2 µg/mL (≈ 7.29 µM) | MIC [18]: 1 µg/mL (≈ 3.65 µM) | hemolysis at 1.5 h, 256 ug/ml [20]: < 1% | MIC [21]: 0.25 µg/mL (≈ 0.912 µM) | MIC [22]: 64 µg/mL (≈ 233 µM) | MIC [23]: 4 µg/mL (≈ 14.6 µM) | MIC [24]: 128 µg/mL (≈ 467 µM) | MIC [26]: 256 µg/mL (≈ 933 µM) | MIC [28]: 128 µg/mL (≈ 467 µM) | MIC [29]: 128 µg/mL (≈ 467 µM) | MIC [30]: 32 µg/mL (≈ 117 µM) | MIC [31]: 1 µg/mL (≈ 3.65 µM) | MIC [33]: 2 µg/mL (≈ 7.29 µM) | MIC [34]: 0.5 µg/mL (≈ 1.82 µM) | HC5 [36]: > 10000 µg/mL | MIC [39]: 2 µg/mL (≈ 7.29 µM)
